Experimental data as given in patent US7569605B2, “Methods of treating central nervous system disorders with a low dose combination of escitalopram and bupropion” (Forest Laboratories Holdings Limited, priority 2005, dated 2009).

Test system: patients with major depressive disorder (MDD)
Test: double-blind fixed dose comparison in major depressive disorder: safety and tolerability
Format: in vivo, human
Conditions: for Early Discontinuation: AEs / Early Discontinuation: All Reasons / Early Discontinuation: Insufficient Response / Incidence of TEAEs: Pts with at least 1 TEAE / Selected TEAEs: anorexia / Selected TEAEs: completed suicide* / Selected TEAEs: constipation / Selected TEAEs: decreased appetite / Selected TEAEs: diarrhea / Selected TEAEs: dizziness / Selected TEAEs: dry mouth / Selected TEAEs: early morn awakening / Selected TEAEs: ejaculation delayed / Selected TEAEs: erectile dysfunction / Selected TEAEs: hypersomnia / Selected TEAEs: increased appetite / Selected TEAEs: initial insomnia / Selected TEAEs: insomnia / Selected TEAEs: intentional self-injury / Selected TEAEs: lethargy / Selected TEAEs: libido decreased / Selected TEAEs: libido increased / Selected TEAEs: middle insomnia / Selected TEAEs: nausea / Selected TEAEs: orgasm abnormal / Selected TEAEs: sedation / Selected TEAEs: sleep disorder / Selected TEAEs: somnolence / Selected TEAEs: suicidal ideation / Selected TEAEs: vomiting / Selected TEAEs: weight decreased / Selected TEAEs: weight increased: number of patients (%), 8 weeks double-blind; for patients discontinued treatment early / patients exhibited at least one Treatment Emergent Adverse Event (TEAE): percent of patients, as given in the text
Method: The present study evaluates the efficacy, safety, and tolerability of escitalopram/bupropion combination treatment relative to its component monotherapies, and to placebo in patients with major depressive disorder (MDD).
The study consists of a one-week single-blind placebo lead-in period followed by an 8 week double-blind treatment period. Approximately 135 patients are randomized to each of four treatment groups (placebo, escitalopram oxalate 4 mg, bupropion hydrochloride 150 mg, or escitalopram oxalate 4 mg/bupropion hydrochloride 150 mg), for a total of […].
A randomized, double-blind, fixed-dose, multicenter, parallel-group study is conducted in outpatients with MDD. Patients who meet eligibility criteria at Screening (Visit 1) enter a one-week, single-blind, lead-in period of placebo treatment. Patients who complete the lead-in period and continue to meet all entry criteria at Baseline (Visit 2) are randomly assigned to 8 weeks of double-blind treatment with either placebo, escitalopram 4 mg, bupropion XL 150 mg, or escitalopram 4 mg/bupropion XL 150 mg combination. Assignment to a treatment group is according to a computer-generated randomization schedule.
Safety assessments are made of the patients by a physician at every visit and the evaluation documented. At each visit beginning with Visit 2, patients are queried regarding any adverse events (AEs) since the last visit. Study site personnel record all pertinent information in the electronic Case Report Forms (eCRF). Patients are asked to volunteer information concerning AEs with non-leading question such as “How do you feel?” AEs are collected at Visit 2 and all subsequent visits including early termination.
Dosing: For the single-blind lead-in period, patients are supplied with placebo capsules. For the double-blind period, identical appearing capsules are supplied which contain placebo, escitalopram 4 mg, or bupropion extended-release 150 mg. Medication are supplied in blister cards, each containing 20 capsules arranged in two rows of 10 capsules.
All study medication is administered as a single daily dose throughout the study, preferably at the same time each evening starting on the day the medication is dispensed to the patient. Dosing is subsequently be switched to morning, if preferred. At each visit, patients are instructed to take 2 capsules daily, one from Row 1 and one from Row 2. Patients are instructed to return all unused medication at each study visit. Patients who meet eligibility criteria at Visit 1 are dispensed one blister card containing 20 placebo capsules. Patients are instructed to take two capsules daily as a single dose beginning on the day study medication is dispensed. Patients who meet all eligibility criteria at Visit 2 are assigned a randomization number and dispensed the corresponding blister card for Week 1 of treatment as shown in the Figure below:
Patients are assigned the lowest randomization number available at the site. Patients are instructed to take two capsules daily as a single dose beginning on the day study medication is dispensed. In accordance with their assigned treatment group, patients receive placebo, 4 mg escitalopram, 150 mg bupropion, or 4 mg escitalopram and 150 mg bupropion per day.
At Visit 3, patients are dispensed one blister card for Week 2 of treatment. At Visits 4, 5, and 6, patients are dispensed two blister cards for Weeks 3-4, 5-6, and 7-8 of treatment, respectively. Patients are instructed to continue taking two capsules daily as a single dose. In accordance with their assigned treatment group, patients receive placebo, 4 mg escitalopram, 150 bupropion, or 4 mg escitalopram and 150 mg bupropion per day.

| SMILES | Early Discontinuation: AEs | Early Discontinuation: All Reasons | Early Discontinuation: Insufficient Response | Incidence of TEAEs: Pts with at least 1 TEAE | Selected TEAEs: anorexia | Selected TEAEs: completed suicide* | Selected TEAEs: constipation | Selected TEAEs: decreased appetite | Selected TEAEs: diarrhea | Selected TEAEs: dizziness | Selected TEAEs: dry mouth | Selected TEAEs: early morn awakening | Selected TEAEs: ejaculation delayed | Selected TEAEs: erectile dysfunction | Selected TEAEs: hypersomnia | Selected TEAEs: increased appetite | Selected TEAEs: initial insomnia | Selected TEAEs: insomnia | Selected TEAEs: intentional self-injury | Selected TEAEs: lethargy | also measured |
| --- | --- | --- | --- | --- | --- | --- | --- | --- | --- | --- | --- | --- | --- | --- | --- | --- | --- | --- | --- | --- | --- |
| CC(NC(C)(C)C)C(=O)c1cccc(Cl)c1 (racemic) [bupropion, (±)-1-(3-chlorophenyl)-2-[(1,1-dimethylethyl)amino]-1-propanone] | 10 (7.5%) | 29 (21.6%) | 4 (3.0%) | 101 (75.4%) | 0% | 0% | 6 (4.5%) | 5 (3.7%) | 5 (3.7%) | 2 (1.5%) | 13 (9.7%) | 2 (1.5%) | 0% | 0% | 0% | 3 (2.2%) | 1 (0.7%) | 14 (10.4%) | 0% | 2 (1.5%) | Selected TEAEs: libido decreased: 1 (0.7%); Selected TEAEs: libido increased: 0%; Selected TEAEs: middle insomnia: 3 (2.2%); Selected TEAEs: nausea: 5 (3.7%); Selected TEAEs: orgasm abnormal: 0%; Selected TEAEs: sedation: 1 (0.7%); Selected TEAEs: sleep disorder: 2 (1.5%); Selected TEAEs: somnolence: 2 (1.5%); Selected TEAEs: suicidal ideation: 1 (0.7%); Selected TEAEs: vomiting: 0%; Selected TEAEs: weight decreased: 4 (3.0%); Selected TEAEs: weight increased: 0%; patients discontinued treatment early: 21.6%; patients exhibited at least one Treatment Emergent Adverse Event (TEAE): 75.4% |
| CN(C)CCC[C@@]1(c2ccc(F)cc2)OCc2cc(C#N)ccc21 [escitalopram, 1-[3-(dimethyl-amino)propyl]-1-(p-fluorophenyl)-5-phthalancarbonitrile] | 5 (3.8%) | 24 (18.3%) | 0% | 86 (65.6%) | 1 (0.8%) | 0% | 3 (2.3%) | 2 (1.5%) | 6 (4.6%) | 3 (2.3%) | 11 (8.4%) | 1 (0.8%) | 2 (3.9%) | 0% | 0% | 1 (0.8%) | 0% | 5 (3.8%) | 0% | 0% | Selected TEAEs: libido decreased: 3 (2.3%); Selected TEAEs: libido increased: 0%; Selected TEAEs: middle insomnia: 0%; Selected TEAEs: nausea: 10 (7.6%); Selected TEAEs: orgasm abnormal: 0%; Selected TEAEs: sedation: 1 (0.8%); Selected TEAEs: sleep disorder: 0%; Selected TEAEs: somnolence: 4 (3.1%); Selected TEAEs: suicidal ideation: 0%; Selected TEAEs: vomiting: 2 (1.5%); Selected TEAEs: weight decreased: 0%; Selected TEAEs: weight increased: 3 (2.3%); patients discontinued treatment early: 18.3%; patients exhibited at least one Treatment Emergent Adverse Event (TEAE): 65.6% |
